Experimental data taken from patent US7202244B2, “Chk-1 inhibitors” (Millennium Pharmaceuticals, Inc., priority 2002, dated 2007).

Key:
[1] = target: T1, GST-Chk1 (recombinant human Chk1) (Homo sapiens, UniProt O14757); assay: Chk1 FlashPlate kinase assay; assay type: biochemical; settings: 1 uM ATP
T1 construct: made in house; host or cells: insect cells (Bac-to-Bac baculovirus system)
T1 sequence (O14757 1-476): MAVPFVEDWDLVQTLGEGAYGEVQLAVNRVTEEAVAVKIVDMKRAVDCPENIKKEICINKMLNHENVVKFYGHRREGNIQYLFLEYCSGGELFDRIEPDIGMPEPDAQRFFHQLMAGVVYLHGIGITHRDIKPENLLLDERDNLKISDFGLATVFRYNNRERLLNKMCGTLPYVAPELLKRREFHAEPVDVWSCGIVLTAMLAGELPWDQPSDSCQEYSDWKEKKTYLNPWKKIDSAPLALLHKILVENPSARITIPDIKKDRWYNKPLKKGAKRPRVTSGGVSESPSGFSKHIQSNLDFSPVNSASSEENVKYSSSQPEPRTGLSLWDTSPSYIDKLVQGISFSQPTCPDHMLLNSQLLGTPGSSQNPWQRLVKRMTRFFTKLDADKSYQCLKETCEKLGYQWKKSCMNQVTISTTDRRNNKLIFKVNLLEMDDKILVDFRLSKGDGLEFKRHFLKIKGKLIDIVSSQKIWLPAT
Procedure: Recombinant human Chk1 was expressed as a fusion protein with glutathione S-transferase at the amino-terminus (GST-Chk1) using standard baculovirus vectors and (Bac-to-Bac®) insect cell expression system purchased from GIBCO™ Invitrogen. Recombinant protein expressed in insect cells was purified using glutathione sepharose (Amersham Biotech) using standard procedures described by the manufacturer.
Chk1 FlashPlate® Kinase Assay:
Reactions were incubated for 30 minutes at room temperature, terminated with 50 ul of 50 mM EDTA and 90 ul were transferred to streptavidin-coated FlashPlates® (NEN) and incubated for 1 hour at room temperature. Plates were washed with phosphate buffered salaine containing 0.01% Tween-20 and 10 mM sodium pyrophosphate. Plates were dried, sealed with Topseal™ (NEN) and amount of ^33P incorporated into the peptide substate measure using a Packard Topcount® NXT™ scintillation counter with standard settings.
Compounds of the present invention were tested in the Chk1 FlashPlate® kinase assay described above.

[2] = test system: HT29, HCT116 or other cells; assay: WST assay: enhancement of cell killing by DNA damaging agents; assay type: cell-based; settings: shift of 1 = no shift; for Shift 156 nM: Chk1 inhibitor fixed at 156 nM with DNA damaging agent titration; for Shift 313 nM: Chk1 inhibitor fixed at 313 nM with DNA damaging agent titration; for Shift 625 nM: Chk1 inhibitor fixed at 625 nM with DNA damaging agent titration; for Shift 1.25 μM: Chk1 inhibitor fixed at 1.25 μM with DNA damaging agent titration; for Shift 2.5 μM: Chk1 inhibitor fixed at 2.5 μM with DNA damaging agent titration; for Shift 78 nM: Chk1 inhibitor fixed at 78 nM with DNA damaging agent titration
Procedure: HT29, HCT116 (5000 cells/well) or other cells were seeded (75 ul) to 96 well clear bottom plates at densities which provide linear growth curves for 72 hours. Cells were cultured under sterile conditions in appropriate media and for HT29 & HCT116 this media was McCoy's 5A containing 10% Fetal Bovine Serum (FBS). Following the initial seeding of cells they are incubated at 37° C., 5% CO2 from 17 to 24 hours at which time the appropriate DNA damaging agents (camptothecins, 5-fluorouracil and etoposid) are added at increasing concentrations to a point which is capable of causing at least 80% cell killing with in 48 hours. Final volume of all DNA damaging agent & compound additions was 25 ul and assays contained <1% DMSO final. At the same time as DNA Damaging agent addition, Chk1 inhibitor was added at fixed concentrations to each DNA damaging agent titration to observe enhancement of cell killing. In addition, toxicity of each Chk1 inhibitor alone was observed. By doing this over a range of Chk1 inhibitor concentrations we were able to identify compounds which maximally enhance (2–30 fold) cell killing by each DNA damaging agent and generated ≦80% cell killing by the compound alone. Cell viability/cell killing under the conditions described above was determined by addition WST reagent (Roche) according to the manufacturer at 47 hours following DNA damage & Chk1 inhibitor addition and following a 3.5 hour or 2.5 hour incubation at 37 C, 5% CO2, OD450 was measured.

CHK-1 = target: T2, CHK-1 (Homo sapiens, UniProt O14757); assay: IC50 for the test compound versus CHK-1 (Table 2, assay format not stated); assay type: biochemical
T2 sequence (O14757 1-476): T1 sequence (O14757 1-476)

Structure (SMILES): COc1cc(Cl)c(C)cc1NC(=O)Nc1cnccn1 [Compound 46]
- IC50 [1]: < 1000 nM

Structure (SMILES): Cc1cnc(NC(=O)Nc2cc(Cl)ccc2OCC(C)(C)CN)cn1 [Compound 109]
- IC50 [1]: < 100 nM

Structure (SMILES): NCCCOc1ccc(Cl)cc1NC(=O)Nc1ccc(C(N)=O)cn1 [Compound 110]
- IC50 [1]: < 100 nM

Structure (SMILES): N#Cc1ccc(NC(=O)Nc2cc(Cl)ccc2OCCCN)nc1 [Compound 111]
- IC50 [1]: < 100 nM

Structure (SMILES): Cc1cnc(NC(=O)Nc2cc(Cl)ccc2OCCCNC2CCC2)cn1 [Compound 112]
- IC50 [1]: < 100 nM

Structure (SMILES): CN(C)CCCOc1ccc(Cl)cc1NC(=O)Nc1cnccn1 [Example 1, 1-[5-Chloro-2-(3-dimethylamino-propoxy)-phenyl]-3-pyrazin-2-yl-urea]
- Shift 156 nM [2]: 1
- Shift 313 nM [2]: 1.2
- Shift 625 nM [2]: 1.6
- Shift 1.25 μM [2]: 2.2
- Shift 2.5 μM [2]: 3.4
- IC50 [1]: < 100 nM
- IC50 (CHK-1): 3.5 nM

Structure (SMILES): CN(C)CCOc1ccc(Cl)cc1NC(=O)Nc1cnccn1 [Example 2, 1-[5-Chloro-2-(2-dimethylamino-ethoxy)-phenyl]-3-pyrazin-2-yl-urea]
- Shift 156 nM [2]: 1
- Shift 313 nM [2]: 1.1
- Shift 625 nM [2]: 1.5
- Shift 1.25 μM [2]: 1.9
- Shift 2.5 μM [2]: 2.6
- IC50 [1]: < 100 nM
- IC50 (CHK-1): 8 nM

Structure (SMILES): Cc1cnc(NC(=O)Nc2cc(Cl)ccc2OCCN(C)C)cn1 [Example 3, 1-[5-Chloro-2-(2-dimethylamino-ethoxy)-phenyl]-3-(5-methyl-pyrazin-2-yl)-urea]
- IC50 [1]: < 100 nM

Structure (SMILES): O=C(Nc1cnccn1)Nc1cc(Cl)ccc1OCCN1CCOCC1 [Example 5, 1-[5-Chloro-2-(2-morpholin-4-yl-ethoxy)-phenyl]-3-pyrazin-2-yl-urea]
- IC50 [1]: < 1000 nM

Structure (SMILES): COc1ccc(Cl)cc1NC(=O)Nc1cnccn1 [Example 6, 1-(5-Chloro-2-methoxy-phenyl)-3-pyrazin-2-yl-urea]
- IC50 [1]: < 1000 nM

Structure (SMILES): CC(C)CCOc1ccc(Cl)cc1NC(=O)Nc1cnccn1 [Example 7, 1-[5-Chloro-2-(3-methyl-butoxy)-phenyl]-3-pyrazin-2-yl-urea]
- IC50 [1]: < 1000 nM

Structure (SMILES): COc1ccc(C)cc1NC(=O)Nc1cnccn1 [Example 8, 1-(2-Methoxy-5-methyl-phenyl)-3-pyrazin-2-yl-urea]
- IC50 [1]: < 1000 nM

Structure (SMILES): O=C(Nc1cnccn1)Nc1ccccc1OC(F)(F)F [Example 9, 1-Pyrazin-2-yl-3-(2-trifluoromethoxy-phenyl)-urea]
- IC50 [1]: < 1000 nM

Structure (SMILES): Cc1ccc(Cl)cc1NC(=O)Nc1cnccn1 [Example 10, 1-(5-Chloro-2-methyl-phenyl)-3-pyrazin-2-yl-urea]
- IC50 [1]: < 1000 nM

Structure (SMILES): COc1ccc(NC(C)=O)cc1NC(=O)Nc1cnccn1 [Example 11, N-[4-Methoxy-3-(3-pyrazin-2-yl-ureido)-phenyl]-acetamide]
- IC50 [1]: < 1000 nM

Structure (SMILES): COC(=O)c1ccc(OC)c(NC(=O)Nc2cnccn2)c1 [Example 12, 4-Methoxy-3-(3-pyrazin-2-yl-ureido)-benzoic acid methyl ester]
- IC50 [1]: < 1000 nM

Structure (SMILES): COc1ccc(C(F)(F)F)cc1NC(=O)Nc1cnccn1 [Example 13, 1-(2-Methoxy-5-trifluoromethyl-phenyl)-3-pyrazin-2-yl-urea]
- IC50 [1]: < 1000 nM

Structure (SMILES): COc1ccc(NC(=O)Nc2cnccn2)c(OC)c1 [Example 14, 1-(2,4-Dimethoxy-phenyl)-3-pyrazin-2-yl-urea]
- IC50 [1]: < 1000 nM

Structure (SMILES): COc1ccc(Cl)c(NC(=O)Nc2cnccn2)c1 [Example 15, 1-(2-Chloro-5-methoxy-phenyl)-3-pyrazin-2-yl-urea]
- IC50 [1]: < 1000 nM

Structure (SMILES): COc1ccc(Cl)cc1NC(=O)Nc1ccncn1 [Example 16, 1-(5-Chloro-2-methoxy-phenyl)-3-pyrimidin-4-yl-urea]
- IC50 [1]: < 20000 nM

Structure (SMILES): COc1ccccc1NC(=O)Nc1cnccn1 [Example 17, 1-(2-Methoxy-phenyl)-3-pyrazin-2-yl-urea]
- IC50 [1]: < 20000 nM

Structure (SMILES): COc1ccc(NC(=O)Nc2cnccn2)cc1Cl [Example 18, 1-(3-Chloro-4-methoxy-phenyl)-3-pyrazin-2-yl-urea]
- IC50 [1]: < 20000 nM

Structure (SMILES): O=C(Nc1cccc(Cl)c1)Nc1cnccn1 [Example 19, 1-(3-Chloro-phenyl)-3-pyrazin-2-yl-urea]
- IC50 [1]: < 20000 nM

Structure (SMILES): O=C(Nc1ccc(N2CCCCC2)cc1)Nc1cnccn1 [Example 21, 1-(4-Piperidin-1-yl-phenyl)-3-pyrazin-2-yl-urea]
- IC50 [1]: < 20000 nM

Structure (SMILES): O=C(Nc1cnccn1)Nc1cnccn1 [Example 23, 1,3-Di-pyrazin-2-yl-urea]
- IC50 [1]: < 20000 nM

Structure (SMILES): O=C(Nc1ccc2c(c1)OCO2)Nc1cnccn1 [Example 24, 1-Benzo[1,3]dioxol-5-yl-3-pyrazin-2-yl-urea]
- IC50 [1]: < 20000 nM

Structure (SMILES): O=C(Nc1cnccn1)Nc1cc(Cl)ccc1OCCN1CC1 [Example 26, 1-[2-(2-Aziridin-1-yl-ethoxy)-5-chloro-phenyl]-3-pyrazin-2-yl-urea]
- IC50 [1]: < 1000 nM

Structure (SMILES): O=C(Nc1cnccn1)Nc1cc(Cl)ccc1OCc1cccnc1 [Example 27, 1-[5-Chloro-2-(pyridin-3-ylmethoxy)-phenyl]-3-pyrazin-2-yl-urea]
- IC50 [1]: < 1000 nM

Structure (SMILES): Cc1cnc(NC(=O)Nc2cc(Cl)ccc2OCCCN)cn1 [Example 28]
- Shift 78 nM [2]: 2.7
- Shift 156 nM [2]: 3.4
- Shift 313 nM [2]: 5.3
- Shift 625 nM [2]: 6.8
- Shift 1.25 μM [2]: toxic
- Shift 2.5 μM [2]: toxic
- IC50 (CHK-1): 4 nM

Structure (SMILES): NCCCOc1ccc(Cl)cc1NC(=O)Nc1cnccn1 [Example 29, 1-[2-(3-Amino-propoxy)-5-chloro-phenyl]-3-pyrazin-2-yl-urea]
- Shift 78 nM [2]: 2.5
- Shift 156 nM [2]: 3.1
- Shift 313 nM [2]: 4.5
- Shift 625 nM [2]: 5.0
- Shift 1.25 μM [2]: toxic
- Shift 2.5 μM [2]: toxic
- IC50 (CHK-1): 2.5 nM

Structure (SMILES): CN(C)CCCOc1ccc(Cl)cc1NC(=O)Nc1cnc2ccccc2n1 [Example 30, 1-[5-Chloro-2-(3-dimethylamino-propoxy)-phenyl]-3-quinoxalin-2-yl-urea]
- Shift 1.25 μM [2]: 1
- Shift 2.5 μM [2]: 1.4
- IC50 (CHK-1): 19 nM

Structure (SMILES): NCCCOc1ccc(Cl)cc1NC(=O)Nc1cnc2ccccc2n1 [Example 31, 1-[2-(3-Amino-propoxy)-5-chloro-phenyl]-3-quinoxalin-2-yl-urea]
- Shift 156 nM [2]: 1.3
- Shift 313 nM [2]: 1.8
- Shift 625 nM [2]: 2.8
- Shift 1.25 μM [2]: 4.4
- Shift 2.5 μM [2]: 6.2
- IC50 (CHK-1): 5 nM

Structure (SMILES): NCCOc1ccc(Cl)cc1NC(=O)Nc1cnccn1 [Example 32, 1-[2-(2-Amino-ethoxy)-5-chloro-phenyl]-3-pyrazin-2-yl-urea]
- Shift 1.25 μM [2]: 1.2
- Shift 2.5 μM [2]: 1.4
- IC50 (CHK-1): 16 nM

Structure (SMILES): Cc1cnc(NC(=O)Nc2cc(Cl)ccc2OCCCCN)cn1 [Example 33, 1-[2-(4-Amino-butoxy)-5-chloro-phenyl]-3-(5-methyl-pyrazin-2-yl)-urea]
- Shift 78 nM [2]: 1.8
- Shift 156 nM [2]: 2.4
- Shift 313 nM [2]: 2.7
- Shift 625 nM [2]: 3.1
- IC50 (CHK-1): 3 nM

Structure (SMILES): COc1cncc(NC(=O)Nc2cc(Cl)ccc2OCCCN)n1 [Example 34]
- Shift 1.25 μM [2]: 2.4
- Shift 2.5 μM [2]: 3.031
- IC50 (CHK-1): 20 nM

Structure (SMILES): Cc1ccc(OCCCN(C)C)c(NC(=O)Nc2cnccn2)c1 [Example 35, 1-[5-Methyl-2-(3-dimethylamino-propoxy)-phenyl]-3-pyrazin-2-yl-urea]
- Shift 1.25 μM [2]: 2.1
- Shift 2.5 μM [2]: 2.9
- IC50 (CHK-1): 16 nM
